System: human stem-cell derived cardiomyocytes
Assay: Promega ATP assay (CellTiter-Glo luminescent cell viability) on cardiomyocytes
Assay type: cell-based
Text: Cells were dissociated at day 21 using 10× TrypLE select and replated at 20.000 cells/well in white 96-well plates (Corning 655098) and treated according to the protocol shown in FIG. 1. Alternatively, Pluricyte Cardiomyocytes were obtained from Pluriomics (Leiden, The Netherlands). The cryopreserved cells were recovered in maintained in Pluricyte Medium (Pluriomics, Leiden, The Netherlands) and thereafter cultivated on medium without glucose and/or galactose but comprising fatty acids and carnitine as described below. […]
After two days, an ATP viability assay was performed. ATP values were measured using the Promega Cell titer Glo luminescent cell viability kit according to manufacturers instructions. […] Available ATP is measured via an ATP dependent conversion of Luciferin by a recombinant Luciferase, which produces oxyluciferin and light. The amount of luminescence generated is therefore directly proportional to the amount of ATP in the cells.

COc1cccc2c1C(=O)c1c(O)c3c(c(O)c1C2=O)C[C@@](O)(C(=O)CO)C[C@@H]3O[C@H]1C[C@H](N)[C@H](O)[C@H](C)O1 [doxorubicin]
effect on ATP levels (cardiomyocytes cultivated in the presence of glucose, various concentrations of doxorubicin, n=6 (FIG. 2)): shows a clear effect on ATP levels | mitochondrial toxicity (ATP levels), CM versus CM− medium (cells grown in CM (with glucose) compared with CM− (without glucose and galactose, with fatty acids and carnitine) (FIG. 3, lower panel)): more pronounced in cells cultured in CM−
